The values below are quoted from earlier work in patent US20020010164A1, “Low oxygen content compositions of 1alpha, 25-dihydroxycholecalciferol” (priority 1999, published 2002).

Turning to `C=C1/C(=C\C=C2/CCCC3(C)C2CCC3C(C)CCCC(C)(C)O)CC(O)CC1O` (stereo not drawn) [1α, 25-dihydroxycholecalciferol], the “solubility in organic solvents” value (organic solvents) is “soluble”. Besides, under “water”, the solubility in water result is on record as “practically insoluble”.
